Data on two compounds can be found in patent EP3368040B1, “METHODS AND COMPOSITIONS FOR RECOVERY FROM STROKE” (Eip Pharma, LLC, priority 2015, dated 2017).

The structures appear in SMILES notation.

The nature of data set [1]: brain versus blood drug concentration in pre-clinical studies. Type of data set: in vivo.
For data set [2], the system named is rat model of stroke. Description: transient MCAO in rats: neurological scoring (Neuroscore, mNSS). Type of data set: in vivo, Sprague Dawley rats. The protocol: (§1) Altogether 76 adult male Sprague Dawley rats, purchased from Harlan Laboratories, (Israel), and weighing 300-350 g were used for the experiment. Animals were housed at a standard temperature (20-24°C) and in a light-controlled environment (12 hours light / 12 hours dark) with ad libitum access to food and water. Animals were grouped as follows: • Group 1M: 20 tMCAO animals treated twice-a-day with vehicle from Day 3 (day 1 being day of stroke surgery) to Day 42 (via PO gavage) • Group 2M: 22 tMCAO animals treated twice-a-day with VX-745 (1.5 mg/kg) from Day 3 (day 1 being day of stroke surgery) to Day 42 (via PO gavage) • Group 3M: 21 tMCAO animals treated twice-a-day with VX-745 (4.5 mg/kg) from Day 3 (day 1 being day of stroke surgery) to Day 42 (via PO gavage)
Transient middle cerebral artery occlusion was performed according to the method described in R. Schmid-Elsaesser et al., Stroke, 29(10):2162-2170 (1998). The right Common Carotid Artery (CCA) was exposed through a midline neck incision and carefully dissected free from surrounding nerves and fascia - from its bifurcation to the base of the skull. The occipital artery branches of the ECA (External Carotid Artery) were then isolated, and these branches were dissected and coagulated. The ECA was dissected further distally and coagulated along with the terminal lingual and maxillary artery branches, which was then divided. The ICA (Internal Carotid Artery) was isolated and carefully separated from the adjacent vagus nerve, and the pterygopalatine artery was ligated close to its origin with a 5-0 nylon suture (SMI, Belgium). Next, a 4-0 silk suture was tied loosely around the mobilized ECA stump, and a 4 cm length of 4-0 monofilament nylon suture (the tip of the suture was blunted by using a flame, and the suture was coated with polylysine, prior to insertion) was inserted through the proximal ECA into the ICA and thence into the circle of Willis, effectively occluding the MCA. The surgical wound was closed and the animals were returned to their cages to recover from anesthesia. […]

Data set [3] deals with rat model of stroke. Kind of data set: transient MCAO in rats: stepping test. It is filed as in vivo, Sprague Dawley rats. The settings on record: Week 4 up to Week 6; 1.5 and 4.5 mg/kg PO twice a day. As to the method:
as §1
(§2) Transient middle cerebral artery occlusion was performed according to the method described in R. Schmid-Elsaesser et al., Stroke, 29(10):2162-2170 (1998). […]
Stepping Test. […] The animal was held with its hind limbs fixed in one hand and the forelimb, not to be monitored, in the other, while the unrestrained fore-paw touches the table. The number of adjusting steps were counted while the animal was moved sideways along the table surface (85 cm during approximately five seconds), in the forehand & backhand direction for both forelimbs. […]

The subject of data set [4] is rat model of stroke. Kind of data set: transient MCAO in rats: forelimb placement test. It is filed as in vivo, Sprague Dawley rats. The settings on record: Week 4 and Week 6; 1.5 and 4.5 mg/kg PO twice a day. The protocol: as §1
Transient middle cerebral artery occlusion was performed according to the method described in R. Schmid-Elsaesser et al., Stroke, 29(10):2162-2170 (1998). The right Common Carotid Artery (CCA) was exposed through a midline neck incision and carefully dissected free from surrounding nerves and fascia - from its bifurcation to the base of the skull. The occipital artery branches of the ECA (External Carotid Artery) were then isolated, and these branches were dissected and coagulated. The ECA was dissected further distally and coagulated along with the terminal lingual and maxillary artery branches, which was then divided. […]

For data set [5], the system named is rat model of stroke. Description: transient MCAO in rats: body swing test. Conditions: particularly in the 4.5 mg/kg dose group. Type of data set: in vivo, Sprague Dawley rats. The protocol: as §1, §2
Body Swing Test. […] A swing was recorded whenever the rat moved its head out of the vertical axis to either side. Before attempting another swing, the rat had must return to the vertical position for the next swing to be counted. Twenty (20) total swings were counted. […] Body swing scores were expressed as a percentage of rightward over total swings. […]

Data set [6] in a line: transient MCAO in rats: body weight monitoring. Type of data set: in vivo, Sprague Dawley rats. The settings on record: through the study; 1.5 and 4.5 mg/kg PO twice a day versus vehicle. The protocol: as §1
Animals were handled at a minimum for three days before the surgery. Baseline measures were taken before stroke was induced. Stroke surgery occurred on Day 1. On Day 2, 24 hours post-stroke surgery, Neuroscore testing was performed. Only animals reaching and exceeding Neuroscore criteria was included in the study. On Days 3-42, treatment with vehicle or VX-745 was administered twice a day for 40 days via PO (oral) gavage for all groups. Behavioral tests for all groups were conducted on weeks 4 and 6. Animals were sacrificed on Day 44 and brains were harvested. […]

Another data set relates to IL-1β. Description: transient MCAO in rats: IL-1β ELISA of brain at study termination. Type of data set: in vivo, Sprague Dawley rats. Conditions: study termination (Day 44); right minus left hemisphere; trend to lower concentrations in treated groups. The text has this:
The brains of all animals were harvested on Day 44. Rats were sacrificed by CO2 inhalation. Brains were harvested from all animals in each group, divided to left and right hemisphere, weighed, and snap frozen.
Brains were harvested at study termination. Each brain was dissected into two hemispheres and each hemisphere was weighed and enclosed into tubes marked Left or Right. Each tube was immediately frozen in liquid nitrogen and stored at (-80)°C. The tissues were defrosted and homogenized in 1 ml / 200 mg tissue of 20mM Tris-HCL pH 7.4 containing a protease inhibitor cocktail (50 µl/ml). Samples were centrifuged at 10,000 g for 15 min at 4°. Clear supernatants were aliquoted (150 µl/aliquot) and stored at (-80)°C until EILSA assays were performed. ELISA assay was executed according to kit instructions. Standards and samples were tested in duplicates.
Following study termination, animals were also tested for IL-1β brain levels using the ELISA system (see Figure 8 for standard curves). The variability of the results was too large to allow definitive conclusions. All the results below the Lower Limit of Quantification (LLOQ) were assigned the LLOQ value of 5pg/ml. Then, results for the uninjured left side were subtracted from the results of the right side. The distribution for individual rats is given in the figure below (n=18 in each of the study groups) (Figure 9).
(In general: An ELISA detects its analyte on a solid surface through an enzyme-linked reagent.)

Data set [7] in a line: transient MCAO in rats: mortality and clinical signs. It is filed as in vivo.
Protocol: Animals were handled at a minimum for three days before the surgery. Baseline measures were taken before stroke was induced. Stroke surgery occurred on Day 1. On Day 2, 24 hours post-stroke surgery, Neuroscore testing was performed. Only animals reaching and exceeding Neuroscore criteria was included in the study. […] Behavioral tests for all groups were conducted on weeks 4 and 6. Animals were sacrificed on Day 44 and brains were harvested.
Another data set concerns cytokine production. The settings on record: inhibition of cytokine production; cited from earlier work.
Another data set relates to cytokine signaling. The settings on record: relative to IC50 for cytokine production; Alam 2015; cited from earlier work.
For data set [8] the following is noted: treatment of rheumatoid arthritis; cited from earlier work.
The test system of the next data set is animal models of stroke. Conditions: administered 24-hours after stroke; Piao et al. 2003; cited from earlier work.

Take `O=c1ncn2nc(Sc3ccc(F)cc3F)ccc2c1-c1c(Cl)cccc1Cl` [VX-745]: the “drug concentrations in the brain compared with the blood” value in data set [1] is “approximately two-fold”. The “neuroscore, difference between the two doses” value in the data set with rat model of stroke [2] (1.5 mg/kg versus 4.5 mg/kg PO twice a day (Figure 2)) is “statistically significant difference”. The “neuroscore delta (change from Day 2 to actual Week) versus vehicle treated control group” value in the data set with rat model of stroke [2] (Week 4 or Week 6, 1.5 and 4.5 mg/kg PO twice a day, Day 3 to Day 42) is reported as “statistically significant difference”. For the same compound, the “absolute neuroscore versus vehicle treated control group” value in the data set with rat model of stroke [2] (Weeks 4 and 6, 1.5 and 4.5 mg/kg PO twice a day, Day 3 to Day 42, start 48 hours after reperfusion) is on record as “statistically significant difference”. In the data set with rat model of stroke [3], the “stepping test, sensory motor deficit (number of steps, left forelimb) versus vehicle treated control group” value is on record as “Statistically significant differences”. In addition, the “forelimb placement test, sensory motor improvement versus vehicle treated control group” value in the data set on rat model of stroke [4] is “Statistically significant differences”. In addition, the “body swing test, outcome” value in the data set with rat model of stroke [5] is given as “near normalization”. In addition, in data set [6], the “body weight, differences between groups” value is recorded as “No statistically significant differences”. Besides, the “IL-1β levels in the brain, differences between groups” value in the data set on IL-1β is given as “No statistically significant differences”. Further, the “rats that died after treatment initiation” value in [7] (1.5 mg/kg group (2M), within two weeks of treatment initiation) is recorded as “one”. In addition, the “general clinical signs, differences between groups” value in data set [7] (1.5 and 4.5 mg/kg PO twice a day versus vehicle) is reported as “no observed differences”. Also, the “whole blood IC50” value in the data set on cytokine production was 0.065 to 0.08 µg/mL. Besides, the “IC50 for inhibition of cytokine signaling” value with cytokine signaling was “half that for cytokine production”. For the same compound, the mean blood concentration entry in data set [8] is “approximately 75 ng/mL”.

For the compound `C[S+]([O-])c1ccc(-c2nc(-c3ccc(F)cc3)c(-c3ccncc3)[nH]2)cc1` (stereo not drawn) [SB203850], the “effect on recovery from neurologic deficit” value in the data set on animal models of stroke is “no significant effect”.
